Results on eleven compounds are retold here after US10550155B2, “Anticancer peptides” (priority 2018, dated 2020).

By IC50 is commonly meant the concentration at which inhibition is half-maximal.

Read-outs that look alike come from different tables or passages of the source. Where a SMILES comes first, the peptide text is derived from it. Bridges are numbered along the chain shown (N, C = ends). Roman numbers before positions name the chains, in order. [ ]: non-standard residue; d: D form.

The subject of data set [1] is MCF-7 human breast cancer cell line. Description: MTT cytotoxicity assay, MCF-7 cells. Type of data set: cell-based. The method, then:
(§1) The cytotoxic as well as antiproliferative effect of peptides was determined using MTT [3-(4, 5-dimethylthiazol-2-yl)-2, 5-diphenyl tetrazolium bromide] colorimetric assay. MCF-7, NIH-3T3, HeLa and H460 cells were cultured and after confluency, cells were used to test the cytotoxicity by MTT assay. Briefly (3×10^4/mL) of MCF-7 and (2×10^4/mL) cells of NIH-3T3, HeLa and H460 were seeded in 96-wells plate and incubated at 37° C. in 5% CO2 for 24 h. The MCF-7 cells were then treated with different doses of peptides and re-incubated in 5% CO2 at 37° C. for 48 hours. […] Experiment was performed three times and all doses were repeated in triplicate and the calculations were done using formula for percent inhibition.

The next data set relates to HeLa cells. Description: MTT cytotoxicity assay, HeLa cells. Type of data set: cell-based. The method, then: as §1
(In general: Tetrazolium dyes change colour on reduction, which living cells bring about.)

Data set [2] can be described thus: MTT cytotoxicity assay, 3T3 cells. It counts as cell-based, mouse. Particulars: mouse; for IC50: Cytotoxicity IC50, 3T3. The protocol:
as §1

In data set [3] the test system is NIH-3T3 murine fibroblast cell line. Description: MTT cytotoxicity assay, 3T3 cells. Type of data set: cell-based, mouse. The protocol: as §1
Another data set relates to H460 cells. Description: MTT cytotoxicity assay, H460 cells. It counts as cell-based. The method, then:
as §1

In data set [4] the test system is DoHH2 cells (B-cell lymphoma). Put plainly: Alamar blue viability assay, DoHH2 cells. It counts as cell-based. The protocol: The viability of DoHH2 cells was determined by Alamar blue assay. Briefly 200 μl of 1×10^5 cells/ml were incubated with different concentrations of compounds for 24 hours. A one-tenth volume of Alamar blue was then added and the incubation continued for 4 hrs. Absorbance was read in spectrophotometer at wavelengths of 570 nm and 600 nm.
A general note: Alamar Blue is a resazurin reagent that responds to reducing activity.

The subject of data set [5] is bacteria, yeasts, fungi, and protozoa. Particulars: cited from earlier work.
Data set [6] concerns Leishmania infantum promastigote and amastigote. The following applies: cited from earlier work.
The next data set has as its system THP-1 monocytes. The following applies: cited from earlier work.
The subject of another data set is HepG2 cells. The following applies: cited from earlier work.
Where [7] appears, read: MTT, 48 hours, read-out: Cytotoxicity IC50, MCF-7.
[8] abbreviates: MTT, 48 hours, read-out: Cytotoxicity IC50, HeLa.
The mark [9] stands for this setting: MTT, 48 hours, read-out: Cytotoxicity IC50, H460.
Setting [10] is: Alamar blue, 24 hours, read-out: Cytotoxicity IC50, DoHH2.

Consider `COc1cccc2c1C(=O)c1c(O)c3c(c(O)c1C2=O)C[C@@](O)(C(=O)CO)C[C@@H]3O[C@H]1C[C@H](N)[C@H](O)[C@H](C)O1` [Doxorubicin, reference compound], for which the half-inhibitory concentration (IC50) came to 1.6 ± 0.2 µM in data set [1] (Homo sapiens, MCF7, 48 h, read-out: Cytotoxicity IC50, MCF-7) and 5.7 ± 0.36 µM with HeLa cells (Homo sapiens, HeLa, 48 h, read-out: Cytotoxicity IC50, HeLa).

For the compound `CC[C@H](C)[C@H](NC(=O)[C@@H](C)NC(=O)[C@H](CO)NC(=O)[C@H](CC(C)C)NC(=O)[C@@H](N)Cc1ccccc1)C(=O)N[C@H](C(=O)NCC(=O)N[C@@H](CCSC)C(=O)N[C@@H](CC(C)C)C(=O)NCC(=O)N[C@@H](CCCCN)C(=O)N[C@@H](CC(C)C)C(=O)N[C@@H](Cc1ccccc1)C(N)=O)C(C)C` [compound 2, F-L-S-a-I-V-G-M-L-G-K-L-F] (H-FLS[dA]IVGMLGKLF-NH2), the IC50 in [1] (setting [7]) was 17.9 ± 1.1 µM; in [2], above 100 µM; in the data set with HeLa cells (setting [8]), above 100 µM; in the data set with H460 cells (setting [9]), above 100 µM; in data set [4] (setting [10]), above 100 µM. The “Cytotoxicity against 3T3 cell line (in words)” value (shortened to “Cytotoxicity … (in words)”) in data set [3] is “inactive”.

Take `CC[C@H](C)[C@H](NC(=O)CNC(=O)[C@H](CO)NC(=O)[C@H](CC(C)C)NC(=O)[C@@H](N)Cc1ccccc1)C(=O)N[C@H](C(=O)N[C@H](C)C(=O)N[C@@H](CCSC)C(=O)N[C@@H](CC(C)C)C(=O)NCC(=O)N[C@@H](CCCCN)C(=O)N[C@@H](CC(C)C)C(=O)N[C@@H](Cc1ccccc1)C(N)=O)C(C)C` [compound 3, F-L-S-G-I-V-a-M-L-G-K-L-F] (H-FLSGIV[dA]MLGKLF-NH2): the IC50 is 22.4 ± 2.2 µM in data set [1] (human, 48 h); above 100 µM in the data set with HeLa cells (human, 48 h); above 100 µM with H460 cells (human, 48 h); above 100 µM in [4] (human, 24 h). The compound further returned an IC50 at 48 h in data set [2] above 100 µM. Moreover, the “Cytotoxicity … (in words)” value in [3] was “inactive”.

On to `CC[C@H](C)[C@H](NC(=O)[C@@H](C)NC(=O)[C@H](CO)NC(=O)[C@H](CC(C)C)NC(=O)[C@@H](N)Cc1ccccc1)C(=O)N[C@H](C(=O)N[C@H](C)C(=O)N[C@@H](CCSC)C(=O)N[C@@H](CC(C)C)C(=O)NCC(=O)N[C@@H](CCCCN)C(=O)N[C@@H](CC(C)C)C(=O)N[C@@H](Cc1ccccc1)C(N)=O)C(C)C` [compound 5, F-L-S-a-I-V-a-M-L-G-K-L-F] (H-FLS[dA]IV[dA]MLGKLF-NH2), for which the IC50 was 29.5 ± 6.03 µM in data set [1] (human, 48 h); above 100 µM in the data set with HeLa cells (human, 48 h); 37.3 ± 3.5 µM in the data set with H460 cells (human, 48 h); above 100 µM in [4] (human, 24 h). This compound also came in with an IC50 at 48 h in data set [2] above 100 µM. Besides, in data set [3], the “Cytotoxicity … (in words)” value is on record as “no cytotoxicity”.

On to `CC[C@H](C)[C@H](NC(=O)[C@@H](C)NC(=O)[C@H](CO)NC(=O)[C@H](CC(C)C)NC(=O)[C@@H](N)Cc1ccccc1)C(=O)N[C@H](C(=O)N[C@H](C)C(=O)N[C@@H](CCSC)C(=O)N[C@@H](CC(C)C)C(=O)N[C@H](C)C(=O)N[C@@H](CCCCN)C(=O)N[C@@H](CC(C)C)C(=O)N[C@@H](Cc1ccccc1)C(N)=O)C(C)C` [compound 6, F-L-S-a-I-V-a-M-L-a-K-L-F] (H-FLS[dA]IV[dA]ML[dA]KLF-NH2), for which the IC50 in [1] (human, 48 h) is 26.3 ± 5.8 µM; in the data set with HeLa cells (human, 48 h) it was above 100 µM; in the data set on H460 cells (human, 48 h), above 100 µM; in data set [4] (human, 24 h), above 100 µM. This compound also showed an IC50 at 48 h in [2] above 100 µM. The “Cytotoxicity … (in words)” value in [3] was “inactive”.

For the compound `CC[C@H](C)[C@H](NC(=O)CNC(=O)[C@H](CO)NC(=O)[C@H](CC(C)C)NC(=O)[C@@H](N)Cc1ccccc1)C(=O)N[C@H](C(=O)NCC(=O)N[C@@H](CCSC)C(=O)N[C@@H](CC(C)C)C(=O)N[C@H](C)C(=O)N[C@@H](CCCCNC(=O)[C@H](CC(C)C)NC(=O)[C@H](Cc1ccccc1)NC(=O)[C@H](CCCCN)NC(=O)[C@H](CCC(N)=O)NC(=O)[C@H](Cc1ccc(O)cc1)NC(=O)[C@H](C)NC(=O)[C@H](C)NC(=O)[C@H](CCC(=O)O)NC(=O)[C@H](CC(C)C)NC(=O)[C@@H](N)Cc1c[nH]c2ccccc12)C(=O)N[C@@H](CC(C)C)C(=O)N[C@@H](Cc1ccccc1)C(N)=O)C(C)C` [conjugate 7] (I: H-FLSGIVGML[dA]KLF-NH2 / II: H-WLEAAYQKFL; amide I:11-II:C), in data set [2], the IC50 at 48 h is above 100 µM. Further, the IC50 in the data set on HeLa cells (human, 48 h) was above 100 µM; with H460 cells (human, 48 h) it was above 100 µM; in data set [4] (human, 24 h), above 100 µM.

`CC[C@H](C)[C@H](NC(=O)CNC(=O)[C@H](CO)NC(=O)[C@H](CC(C)C)NC(=O)[C@@H](N)Cc1ccccc1)C(=O)N[C@H](C(=O)NCC(=O)N[C@@H](CCSC)C(=O)N[C@@H](CC(C)C)C(=O)N[C@H](C)C(=O)N[C@@H](CCCCN)C(=O)N[C@@H](CC(C)C)C(=O)N[C@@H](Cc1ccccc1)C(=O)N[C@@H](CCCCNC(=O)[C@H](CCCCNC(=O)[C@H](CC(C)C)NC(=O)[C@H](Cc1ccccc1)NC(=O)[C@H](CCCCN)NC(=O)[C@H](CCC(N)=O)NC(=O)[C@H](Cc1ccc(O)cc1)NC(=O)[C@H](C)NC(=O)[C@H](C)NC(=O)[C@H](CCC(=O)O)NC(=O)[C@H](CC(C)C)NC(=O)[C@@H](N)Cc1c[nH]c2ccccc12)NC(=O)[C@H](Cc1ccccc1)NC(=O)[C@H](CC(C)C)NC(=O)[C@H](CCCCN)NC(=O)[C@@H](C)NC(=O)[C@H](CC(C)C)NC(=O)[C@H](CCSC)NC(=O)CNC(=O)[C@@H](NC(=O)[C@@H](NC(=O)CNC(=O)[C@H](CO)NC(=O)[C@H](CC(C)C)NC(=O)[C@@H](N)Cc1ccccc1)[C@@H](C)CC)C(C)C)C(N)=O)C(C)C` [conjugate 8] (I: H-FLSGIVGML[dA]KLFK-NH2 / II: H-FLSGIVGML[dA]KLFK / III: H-WLEAAYQKFL; amide I:14-II:C, II:14-III:C (inferred); N-terminus assumed): the IC50 is 1.7 µM in data set [1] (human, 48 h); 8.7 ± 0.65 µM in the data set with HeLa cells (human, 48 h); 14.3 ± 0.7 µM in the data set on H460 cells (human, 48 h); above 100 µM in data set [4] (human, 24 h). For the same compound, the IC50 at 48 h in data set [2] is above 100 µM. Besides, in [3], the “Cytotoxicity … (in words)” value is listed as “no cytotoxicity”. Besides, the “Activity against HeLa cell line (in words)” value in the data set on HeLa cells (MTT) is reported as “active”. Further, the “Activity against H460 cell line (in words)” value in the data set on H460 cells (MTT) was “active”.

As for `CC[C@H](C)[C@H](NC(=O)CNC(=O)[C@H](CO)NC(=O)[C@H](CC(C)C)NC(=O)[C@@H](N)Cc1ccccc1)C(=O)N[C@H](C(=O)NCC(=O)N[C@@H](CCSC)C(=O)N[C@@H](CC(C)C)C(=O)N[C@H](C)C(=O)N[C@@H](CCCCN)C(=O)N[C@@H](CC(C)C)C(=O)N[C@@H](Cc1ccccc1)C(N)=O)C(C)C` [peptide 4, F-L-S-G-I-V-G-M-L-a-K-L-F] (H-FLSGIVGML[dA]KLF-NH2), the IC50 was 16 to 24 µM in [1] (MTT, 48 hours, listed as SEQ ID NO: 4, read-out: Cytotoxicity IC50, MCF-7); 16.2 ± 2.2 µM in [1] (setting [7]); 16 to 24 µM in data set [2]; 16 ± 3.7 µM in data set [3] (mouse); 16 to 24 µM with HeLa cells (MTT, 48 hours, listed as SEQ ID NO: 4, read-out: Cytotoxicity IC50, HeLa); 22.7 ± 0.86 µM with HeLa cells (setting [8]). In addition, the IC50 with H460 cells (MTT, 48 hours, listed as SEQ ID NO: 4, read-out: Cytotoxicity IC50, H460) is 16 to 24 µM; with H460 cells (setting [9]), 24.3 ± 0.84 µM; in data set [4] (setting [10]) it was above 100 µM. Also, in [3], the “Cytotoxicity … (in words)” value is given as “cytotoxic”.

“[A^2,6,9, K^3] temporin-SHa [[A^2,6,9, K^3] SHa]”: in data set [5], the “Antimicrobial / antibacterial activity (literature)” value is “lack the antibacterial and antiparasitic activity”. Moreover, the “Antiparasitic activity (literature)” value in [6] was “lack the antibacterial and antiparasitic activity”. The “Cytotoxicity on THP-1 monocytes (literature)” value in the data set with THP-1 monocytes is “inactive”. In addition, in the data set on HepG2 cells, the “Cytotoxicity on HepG2 cells (literature)” value is “inactive”.

In the case of [A^2,6,9] temporin-SHa [[A^2,6,9] SHa], in [5], the “Antimicrobial / antibacterial activity (literature)” value is “lack the antibacterial and antiparasitic activity”. Also, in data set [6], the “Antiparasitic activity (literature)” value was “lack the antibacterial and antiparasitic activity”. In addition, in the data set with THP-1 monocytes, the “Cytotoxicity on THP-1 monocytes (literature)” value was “inactive”. For the same compound, the “Cytotoxicity on HepG2 cells (literature)” value in the data set with HepG2 cells was “inactive”.

[K^3] temporin-SHa: the “Antimicrobial / antibacterial activity (literature)” value in [5] is reported as “more potent antimicrobial activity than temporin-SHa”.
